Key:
GLI1-ZFD [1] = biological target: T1, GLI1-ZFD (Homo sapiens, UniProt P08151); assay: Surface plasmon resonance (SPR) binding to GLI1-ZFD; conditions: analyte 100 to 3.125 μM, 1:1 binding fit
T1 construct: GLI1-ZFD Expression and Purification; made in house
T1 sequence (P08151 234-388 limits assumed): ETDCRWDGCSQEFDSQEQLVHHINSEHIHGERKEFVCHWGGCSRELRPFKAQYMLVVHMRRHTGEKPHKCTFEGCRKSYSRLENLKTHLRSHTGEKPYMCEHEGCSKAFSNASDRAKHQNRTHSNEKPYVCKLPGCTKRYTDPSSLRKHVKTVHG
Description: SPR studies were performed on a Biacore T200 as a contract service by Creative Biolabs (Shirley, NY, USA), utilizing the same procedure described previously [G. Yernale, A comprehensive review on the biological interest of quinoline and its derivatives. Bioorg. Med. Chem. 32 (2021) 115973]. Briefly, GLI1 protein was immobilized on a Series S CM5 sensor chip (GE Healthcare), and various concentrations of compound 1a/b were injected (flow rate, 30 μL/min) with a contact time of 180 s and dissociation time of 600 s. Kinetic parameters were determined by the Biacore T200 evaluation software.

GLI1 mRNA expression [2] = assay: RT-qPCR GLI1 mRNA expression in Sufu-KO MEFs; type: cell-based, mouse; conditions: read-out: RT-qPCR, IC50 Sufu-KO
Description: (§1) ASZ001 and Sufu-KO cells were seeded in 96-well plates (10,000/well, 100 μL) and incubated overnight under growth conditions. On the second day, ‘growth’ media was removed and replaced by ‘assay’ media (100 μL). On the third day, cells were treated with a serial dilution of drugs or DMSO for 48 h. mRNA expression was determined through Taqman Fast Cells-to-CT Kit (#4399003) per the manufacturer's instructions. In brief, cells were washed with chilled PBS, then mixed with lysis solution containing DNase I and incubated at RT for 5 min. Stop solution was then added to quench the lysis reagents. cDNA was then synthesized through a BioRad MyCycler following addition of reverse transcriptase. Finally, the cDNA was amplified through an ABI 7500 system following addition of Taqman Fast Universal PCR Master Mix and Taqman Gene Expression Primer. Relative gene expression levels were computed by the ΔΔCt method. Values represent mRNA expression relative to DMSO control (set at 1.0). Data were analyzed using GraphPad Prism, and IC50 values are the mean±SEM for at least two separate experiments performed in triplicate. Primers used are as follows: mouse ActB (Mm00607939_s1); mouse GLI1 (Mm00494645_ml); mouse Gli2 (Mm01293117_ml); mouse Ptch1 (Mm00436026_ml); mouse Hhip (Mm00469580_ml).

GLI1 mRNA expression [3] = assay: RT-qPCR GLI1 mRNA expression in OHCs-stimulated C3H10T1/2 MEFs; type: cell-based, mouse; conditions: Table 4, racemates and enantiomers, mean ± SEM; read-out: RT-qPCR, IC50 C3H10T1/2
Description: as §1
C3H10T1/2 MEFs were seeded in 24-well plates (50,000/well, 500 μL). Following 24 h incubation, the ‘growth’ media was removed and replaced with ‘assay’ media (500 μL). On the third day, cells were treated with either DMSO, OHCs, or OHCs+drugs. Following a 24 h incubation, gene expression analysis was carried out following identical protocols as described above.

GLI1 mRNA expression [4] = assay: RT-qPCR GLI1 mRNA expression in ASZ001 BCC cells; type: cell-based, mouse; conditions: read-out: RT-qPCR, IC50 ASZ001
Description: as §1

GLI1-ZFD [5] = biological target: T1, GLI1-ZFD; assay: Microscale thermophoresis (MST) binding to GLI1-ZFD
Description: The protein expression and purification experiments followed the previous reported procedures [C. A. Maschinot, et al., Synthesis and evaluation of third generation vitamin D3 analogues as inhibitors of hedgehog signaling. Euro. J. Med. Chem. 162 (2019) 495-506].
GLI1 protein labeling was performed through the Monolith Protein Labeling Kit RED-NHS 2nd Generation (Nanotemper #MO-LO11) per the manufacturer's instructions. Briefly, GLI1 (100 μg, 1 mg/mL) underwent buffer exchange to remove incompatible ingredients like Tris or DTT. Proteins in the Labeling Buffer were incubated with freshly prepared dye (˜3-fold excess of dye) for 30 min at RT in the dark. Unreacted ‘free’ dye was removed by a gel-filtration column. Protein concentration and degree-of-labeling were calculated by measuring absorption at 280 nm and 650 nm. For each assay, 200 nM GLI1 in MST Buffer was mixed with compound dilution in DMSO (DMSO<5%, v/v). The mixture was then loaded to a capillary and the thermophoresis was subsequently determined through Monolith NT.115 station. Results were analyzed by MO.Affinity Analysis software and visualized by Graphpad Prism. MST Buffer: 50 mM HEPES, pH 8.3, 100 mM NaCl.

ASZ001 cells = assay: MTS anti-proliferative assay in ASZ001 cells; type: cell-based, murine; conditions: Mus musculus, ASZ001, Ave ± SEM
Description: (§2) Cell viability was assessed by MTS proliferation assay kit (Promega) per manufacturer's protocol. Briefly, 2×10^4 cells were plated in a 96-well plate in 100 μL growth medium to make the cell population at ˜80% confluence. After 24 h, 1 μL drug solution was added to each well. DMSO was used as vehicle compound. After 48 h incubation (37° C., 5% CO2), 20 μL of freshly prepared 3-(4,5-dimethylthiazol-2-yl)-5-(3-carboxymethoxyphenyl)-2-(4-sulfophenyl)-2H-tetrazolium (MTS)/phenazine methosulfate (PMS) solution was added to each well, and the plate was returned to the incubator for 1 h. Absorbance at 490 nm was recorded, and the result was analyzed by GraphPad Prism 5. GI50 values represent mean±SEM for at least two separate experiments performed in triplicate.

DAOY (MB) = assay: MTS anti-proliferative assay in DAOY cells; type: cell-based; conditions: Homo sapiens, Daoy; Table 8, 48 h, mean ± SEM
Description: as §2

PANC-1 (pancreatic) = assay: MTS anti-proliferative assay in PANC-1 cells; type: cell-based; conditions: Homo sapiens, PANC-1; Table 8, 48 h, mean ± SEM
Description: as §2

[6] = Table 4, racemates and enantiomers, mean ± SEM
[7] = Mus musculus, Table 5, GLI1 mRNA, Ave ± SEM
[8] = Mus musculus, ASZ001, Table 5, GLI1 mRNA, Ave ± SEM
[9] = Mus musculus, Table 7, GLI1 mRNA, Ave ± SEM
[10] = Mus musculus, ASZ001, Table 7, GLI1 mRNA, Ave ± SEM

CCN(CC)c1ccc(C(Nc2ccccn2)c2ccc3ccc(C)nc3c2O)cc1 (single isomer, unassigned) [Compound 1b]
Ka (GLI1-ZFD [1]; listed as 1b (S)): 70.3 M⁻¹ s⁻¹ | Kd (GLI1-ZFD [1]; listed as 1b (S)): 0.00131 s⁻¹ | Rmax (GLI1-ZFD [1]; listed as 1b (S)): 78.64 | Kd (GLI1-ZFD [1]; read-out: KD): 18.7 µM | IC50 (GLI1 mRNA expression [2]; [6]): 0.75 ± 0.38 µM | IC50 (GLI1 mRNA expression [3]): 0.12 ± 0.08 µM | IC50 (GLI1 mRNA expression [4]; [6]): 1.9 ± 0.6 µM | Kd (GLI1-ZFD [5]; Table 4, mean ± SEM): 22.1 ± 4.3 µM

CCN(CC)c1ccc(C(Nc2ccccn2)c2ccc3ccc(C)nc3c2O)cc1 (single isomer, unassigned) [Compound 1a]
Ka (GLI1-ZFD [1]; listed as 1a (R)): 171 M⁻¹ s⁻¹ | Kd (GLI1-ZFD [1]; listed as 1a (R)): 0.00165 s⁻¹ | Rmax (GLI1-ZFD [1]; listed as 1a (R)): 62.84 | Kd (GLI1-ZFD [1]; read-out: KD): 9.66 µM | IC50 (GLI1 mRNA expression [2]; [6]): 1.7 ± 0.6 µM | IC50 (GLI1 mRNA expression [3]): 0.71 ± 0.26 µM | IC50 (GLI1 mRNA expression [4]; Mus musculus, ASZ001, Table 4, racemates and enantiomers, mean ± SEM): 1.8 ± 0.7 µM | Kd (GLI1-ZFD [5]; Table 4, mean ± SEM): 12.9 ± 1.6 µM

CCN(CC)c1ccc(CNc2ccccn2)cc1 [Compound 14, N-(4-Diethylaminobenzyl)pyridin-2-amine]
GI50 (ASZ001 cells; Table 5, 48 h): 34.9 ± 6.1 µM | IC50 (GLI1 mRNA expression [2]; [7]): > 25 µM | GI50 (DAOY (MB)): 45.2 ± 7.7 µM | IC50 (GLI1 mRNA expression [4]; [8]): 10 ± 3.2 µM | GI50 (PANC-1 (pancreatic)): 61.9 ± 9.3 µM | Kd (GLI1-ZFD [5]; Table 5, Ave ± SEM): > 125 µM

Cc1ccc2ccc(C(Nc3ccccn3)c3ccc(N4CCCCC4)cc3)c(O)c2n1 (stereo not drawn) [Compound 44, 7-((4-(Piperidin-1-yl)phenyl)(pyridin-2-ylamino)methyl)-2-methylquinolin-8-ol]
GI50 (ASZ001 cells; Table 7, 48 h): 27.7 ± 5.3 µM | IC50 (GLI1 mRNA expression [2]; [9]): 4.5 ± 1 µM | GI50 (DAOY (MB)): 22.6 ± 4 µM | IC50 (GLI1 mRNA expression [4]; [10]): 4 ± 0.8 µM | GI50 (PANC-1 (pancreatic)): 52.7 ± 5.3 µM

Cc1ccc2ccc(C(Nc3ccccn3)c3ccc(N(C)C)cc3)c(O)c2n1 (stereo not drawn) [Compound 42, 7-((4-Dimethylaminophenyl)(pyridin-2-ylamino)methyl)-2-methylquinolin-8-ol]
GI50 (ASZ001 cells; Table 7, 48 h): 10.1 ± 1.8 µM | IC50 (GLI1 mRNA expression [2]; [9]): 1.2 ± 0.3 µM | GI50 (DAOY (MB)): 18.3 ± 3.6 µM | IC50 (GLI1 mRNA expression [4]; [10]): 1.5 ± 0.6 µM | GI50 (PANC-1 (pancreatic)): 45.4 ± 10.3 µM

CCN(CC)c1ccc(C(Nc2ccccn2)c2ccc3cccnc3c2O)cc1 (stereo not drawn) [Compound 15, 7-((4-Diethylaminophenyl)(pyridin-2-ylamino)methyl)quinolin-8-ol]
GI50 (ASZ001 cells; Table 5, 48 h): 12.2 ± 2 µM | IC50 (GLI1 mRNA expression [2]; [7]): 1.1 ± 0.3 µM | GI50 (DAOY (MB)): 8.2 ± 1.6 µM | IC50 (GLI1 mRNA expression [4]; [8]): 1.4 ± 0.4 µM | GI50 (PANC-1 (pancreatic)): 10 ± 1.1 µM

Cc1ccc2ccc(C(Nc3ccccn3)c3ccccc3)c(O)c2n1 (stereo not drawn) [Compound 34, 7-(Phenyl(pyridin-2-ylamino)methyl)-2-methylquinolin-8-ol]
GI50 (ASZ001 cells; Table 7, 48 h): > 100 µM | IC50 (GLI1 mRNA expression [2]; [9]): 7.2 ± 2 µM | GI50 (DAOY (MB)): > 100 µM | IC50 (GLI1 mRNA expression [4]; [10]): 21.3 ± 5.2 µM | GI50 (PANC-1 (pancreatic)): 94.3 ± 19.5 µM | binding to GLI1 (in words) (GLI1-ZFD [5]; MST binding assay): do not bind GLI1 | Kd (GLI1-ZFD [5]; Table 7, Ave ± SEM): > 125 µM

Cc1ccc2ccc(C(Nc3ccccn3)c3ccc(N4CCOCC4)cc3)c(O)c2n1 (stereo not drawn) [Compound 45, 7-((4-Morpholinophenyl)(pyridin-2-ylamino)methyl)-2-methylquinolin-8-ol]
GI50 (ASZ001 cells; Table 7, 48 h): 18.3 ± 1.5 µM | IC50 (GLI1 mRNA expression [2]; [9]): 1.4 ± 0.4 µM | GI50 (DAOY (MB)): 24.2 ± 5.8 µM | IC50 (GLI1 mRNA expression [4]; [10]): 2.2 ± 0.8 µM | GI50 (PANC-1 (pancreatic)): 61.1 ± 11.5 µM

Cc1ccc2ccc(C(Nc3ccccn3)c3ccc([N+](=O)[O-])cc3)c(O)c2n1 (stereo not drawn) [Compound 40, 7-((4-Nitrophenyl)(pyridin-2-ylamino)methyl)-2-methylquinolin-8-ol]
GI50 (ASZ001 cells; Table 7, 48 h): 61.8 ± 27.5 µM | IC50 (GLI1 mRNA expression [2]; [9]): 5.6 ± 0.9 µM | GI50 (DAOY (MB)): 75.2 ± 17.4 µM | IC50 (GLI1 mRNA expression [4]; [10]): 17.3 ± 6.1 µM | GI50 (PANC-1 (pancreatic)): > 100 µM

Reference: US20240299400A1, “Transcription Factor GLI1 Inhibitors and Uses Thereof” (University of Connecticut, priority 2023, published 2024)
